Patent US20110039869A1, “COMPOSITION FOR INHIBITING THE ACTIVITY OF INOSITOL 1,4,5-TRIPHOSPHATE RECEPTOR SUBTYPE III” (Korea Institute of Science and Technology, priority 2008, published 2011)
Entries after “also recorded” stand apart in the source; their conditions may differ. Like-named read-outs stand apart in the source and are kept apart here.

Key:
U178MG cells [1] = assay: Ca2+ imaging: block against agonist-induced intracellular Ca2+ release in U178MG cells; format: cell-based, human; settings: for TFLLR induced Ca2+ release: 10 mM compound; for IC50: Homo sapiens, U178MG cells
Description: 100 seconds after the treatment, the cells were divided into two separate groups, each being stimulated with GPCR (G-protein coupled receptors) agonists, i.e., […] or 10 μM bradykinin, respectively. […] The measurement of Ca^2+ concentration through the measurement of inward current was conducted as described in ‘Justin Lee, et al., The Journal of Physiology, Astrocytic control of synaptic NMDA receptor, 2007’, which is hereby incorporated by reference for all purposes as if fully set forth herein.
After 100 seconds, the cells were stimulated with 30 μM TFLLR.
Error bars indicate SEM. […] Such substance may include: iso-propyl theophylline, 7-(β-3-hydroxyethyl)theophylline, xanthine, theophylline, and 1,7-dimethyl-3-isobutyl xanthine.

[2] = tested on: U178MG, U87MG, wtEGFR, and ΔEGRF cells; assay: Scrape motility assay; format: cell-based, human; settings: 24 hours; 10 mM caffeine, 1 μM thapsigargin, 10 μM 2-APB, 20 μM CPA, 50 μM BAPTA-AM, 10 μM ryanodine
Description: The cell lines were obtained from Emory Uni (U178MG) and ATCC (U87MG, T98G, and M59K). All cell lines were grown as monolayers in 12-well culture plates in serum-containing media (Emory Uni). […] To prevent proliferation, fluorodeoxyuridine (FdU/U; Sigma) was added. After incubation for 24 hours, the cells were fixed in 4% paraformaldehyde. The area of repopulation of three 10× fields within the scrape areas were determined and the mean percentage of scrape area to wound closure was determined.

U178MG glioma cells = assay: Invasion of U178MG glioma cells in organotypic hippocampal slice cultures (OHSCs); format: cell-based, human; settings: 1, 2, 5, 10 mM caffeine; 120 hours vs 1 hour; proportional to concentration
[3] = tested on: shRNA for IP3R3 expressing U178MG cells; assay: Block against Ca2+ responses in U178MG cells expressing shRNA for IP3R3; format: cell-based, human
Description: FIGS. 6d and 6e are Ca^2+ imaging result for U178MG cells, which were transfected with GFP-attached shRNA for IP3R3 via electroporation.

U87MG cells [4] = assay: Orthotropic implantation model, survival rate; settings: 1 mg/ml caffeine containing drinking water
U178MG cells [5] = assay: Dependence of caffeine action on store-operated channels or store depletion; format: cell-based, human; settings: 10 mM caffeine; thapsigargin 1 μM, cyclopiazonic acid 20 μM
Description: Firstly, 1 μM thapsigargin was applied for 2 min in Ca^2+ free HEPES buffer. After depletion of Ca^2+ from endoplasmic reticulum, extra solution was changed to 2 mM Ca^2+HEPES buffer.

glioma = assay: Soft agar assay (colony formation); format: cell-based, human; settings: 0.5, 1, 2, 5, 10 mM caffeine; 14 to 17 days; dose dependent
Description: Cells (1×10^4) were seeded into 6-well plates in a soft agar (0.3%, Difco) overlaying a 0.6% base agar. […] Cells were incubated at 37° C. for 14 to 17 days to allow colonies to develop. Afterward colonies were stained with 0.05% cresyl violet and photographed. The group without caffeine treatment was used as a control. Each assay was done in triplicate (n=3).

[6] = tested on: U178MG, U87MG, U373MG, and T98G cells; assay: Matrigel invasion assay; format: cell-based, human; settings: 24 h; 1, 2, 5, 10 mM caffeine; dose dependent
Description: The cell lines were obtained from ATCC. […] Cell invasion was assayed using transwell inserts (Corning, N.Y., USA) containing […] pore size in 24-well culture plates. For invasion assay, inserts were coated with 2 mg/ml basement membrane Matrigel (BD Bioscience, Bedford, Mass., USA). 1×10^5 cells in serum-free medium (FBS, DMEM, from GIBCO, Invitrogen, USA) were plated onto the upper side of insert and complete medium was placed in the lower chamber to act as a chemoattractant. After 24 h of incubation at 37° C., the cells on the upper side of insert were removed by wiping with a cotton swab and cells migrated to the lower side of membrane were stained with DAPI (Molecular Probes, Invitrogen, USA) and randomly photographed with microscopy at ×40 magnification. The mean number of untreated cells was considered as 100% invasion.

[7] = tested on: GBM, U178MG, T98G, U87MG and HEK293; assay: Block against GPCR agonist-induced intracellular Ca2+ release in various cell types; format: cell-based, human; settings: 10 mM caffeine
Description: The cell lines were obtained from Department of Neurosurgery, Seoul National University College of Medicine (GBM), Emory Uni. ([…]) and ATCC (T98G, U87MG, and HEK293), respectively. […] Error bars are mean±SEM.

U87MG cells [8] = assay: Xenograft tumor growth assay; format: in vivo, athymic mice (Balb/c nu/nu); settings: caffeine 1 mg/ml in drinking water from day 7; 4 weeks
Description: Five-week-old athymic mice (Balb/c nu/nu) were obtained from Central Lab. Animal Inc. (Japan). For the xenograft tumor growth assay, U87MG cells (3×10^5 cells/150 ul PBS) were injected subcutaneously into the right flanks of the mice (n=5 to 10 mice per group), and the experiment was conducted in triplicate. […] The control animals were given distilled water. Tumor mass was estimated twice per week for 4 weeks, and tumor volumes were calculated by the formula: […]

U178MG cells [9] = assay: Live imaging of cell migration; format: cell-based, human; settings: 10 minute intervals for 9 hours

`CC(C)Cn1c(=O)n(C)c(=O)c2c1ncn2C` [1,7-dimethyl-3-isobutyl xanthine] was tested, and the “blocking effect on IP3R3 mediated-Ca2+ response” value (U178MG cells [1]; caffeine analogs, FIG. 10c) was “excellent selective blocking effect”.
In the case of `NCCOB(c1ccccc1)c1ccccc1` [2-APB], the “motility (wound closure by cell migration)” value (shortened to “motility”) [2] is reported as “mimicked”.
In the case of `Cn1c(=O)c2c(ncn2CCO)n(C)c1=O` [7-(β-3-hydroxyethyl)theophylline], the “blocking effect on IP3R3 mediated-Ca2+ response” value (U178MG cells [1]; caffeine analogs, FIG. 10c) is reported as “excellent selective blocking effect”.
For `CCn1cnc2c1c(=O)n(C)c(=O)n2C` [7-ethyl theophylline], the “TFLLR induced Ca2+ release” value (U178MG cells [1]; 30 μM TFLLR) was “no inhibition”.
For `CC(=O)OCOC(=O)CN(CC(=O)OCOC(C)=O)c1ccccc1OCCOc1ccccc1N(CC(=O)OCOC(C)=O)CC(=O)OCOC(C)=O` [BAPTA-AM], the “motility” value [2] was “mimicked”.
In the case of `COc1ccc2c(c1)CC[C@@H]1[C@@H]2CC[C@]2(C)[C@@H](NCCCCCCN3C(=O)C=CC3=O)CC[C@@H]12` [U73122], the “release of Ca2+ from intracellular stores in response to activation of GPCRs and RTKs” value (U178MG cells [1]; GBM cells) is reported as “completely inhibited”.
With `Cn1c(=O)c2c(ncn2C)n(C)c1=O` [caffeine] the “invasion area of DiI-stained cells” value (U178MG glioma cells) was “invasion area was reduced”, the “increase of [Ca2+]i after stimulation with EGF or bradykinin” value (U178MG cells [1]; 10 mM caffeine, 100 ng/ml EGF or 10 μM bradykinin) was “no significant increase” and the “TFLLR induced Ca2+ release” value (U178MG cells [1]; 30 μM TFLLR) was “inhibited”. For the same molecule, the “increase of TFLLR-induced intracellular Ca2+ concentration” value (U178MG cells [1]; 0.3, 3, 10, 30 mM caffeine, 30 μM TFLLR, concentration dependent) was “inhibits the increase”, the IC50 (U178MG cells [1]; EGF 100 ng/ml, read-out: IC50, Ca2+ release evoked by EGF) was 1870 µM and the IC50 (U178MG cells [1]; TFLLR 30 μM, read-out: IC50, Ca2+ release evoked by TFLLR) was 2450 µM. For the same molecule, the “block against Ca2+ responses, IP3R3 silenced by shRNA” value [3] was 20%, the survival rate (U87MG cells [4]) was “significantly increase the survival rate” and the “cause of Ca2+ block (store depletion, store-operated channels)” value (U178MG cells [5]) was “not due to Ca^2+ depletion or block of Ca^2+ flow through TRPC”. For the same molecule, the “proliferation / anchorage-independent growth (colonies)” value (glioma) was “reduced the anchorage-independent growth; also recorded: significantly inhibited”, the “invasion through Matrigel” value [6] was “reduced the invasion rate; also recorded: significantly inhibited” and the “GPCR-induced intracellular Ca2+ release in GBM, U178MG, T98G, U87MG and HEK293” value [7] was “inhibited”. For the same molecule, the “degree of inhibition of Ca2+ responses, U178MG cells compared with other cell types” value [7] was “highest blocking effect”, the “intracellular Ca2+ release” value ([7]; 10 μM bradykinin) was “blocked” and the “intracellular Ca2+ release / Ca2+ responses, HEK293T cell line” value ([7]; 30 μM TFLLR) was “blocked; also recorded: lowest blocking effect”. The “increase of tumor mass” value (U87MG cells [8]) was “significantly inhibited” and the “migration of U178MG cells” value (U178MG cells [9]) was “significantly slowed down”.
For `CC(C)n1cnc2c1c(=O)n(C)c(=O)n2C` [iso-propyl theophylline], the “blocking effect against Ca2+ release (% block)” value (U178MG cells [1]; caffeine analogs, FIG. 10c) was “some degree of blocking effects” and the “blocking effect on IP3R3 mediated-Ca2+ response” value (U178MG cells [1]; caffeine analogs, FIG. 10c) was “excellent selective blocking effect”.
In the case of `C/C=C(/C)C(=O)O[C@H]1C(C)=C2[C@H]([C@@H]1OC(=O)CCCCCCC)[C@@](C)(OC(C)=O)C[C@H](OC(=O)CCC)[C@@]1(O)[C@H]2OC(=O)[C@@]1(C)O` [thapsigargin], the “motility” value [2] is reported as “mimicked” and the “subsequent induction increase in [Ca2+]i by bradykinin after store depletion” value (U178MG cells [1]; store depletion by thapsigargin) is reported as “completely inhibited”.
With `Cn1c(=O)c2[nH]cnc2n(C)c1=O` [theophylline] the “blocking effect on IP3R3 mediated-Ca2+ response” value (U178MG cells [1]; caffeine analogs, FIG. 10c) was “excellent selective blocking effect”.
With `O=c1[nH]c(=O)c2[nH]cnc2[nH]1` [xanthine] the “blocking effect on IP3R3 mediated-Ca2+ response” value (U178MG cells [1]; caffeine analogs, FIG. 10c) was “excellent selective blocking effect”.
ryanodine was tested, and the “motility” value [2] was “did not show any cell migration as such”.
